Assay results from paper PMC9792776 (Frontiers in Pharmacology, 2022).
pKi: −log10 of the molar value.

Legend:
[1] = Fraction unbound (fu) in human plasma; format: in vitro ADME
[2] = Blood/plasma (B/P) ratio in healthy volunteer blood; format: in vitro ADME, human
Description: Besides, the B/P ratio was obtained from healthy volunteer blood, however, in patients with CML, too many myeloid cells become granulocytes (red blood cells, platelets and several white blood cell types). So, red blood cell count might change B/P ratio in CML patients. […] Furthermore, the model simulation for liver cirrhosis patients was not validated by clinical data. We believe that further research is needed on this point.

[3] = target: CYP2C19 (Homo sapiens, UniProt P33261); assay: CYP2C19 inhibition in human liver microsomes
Chain of CYP2C19 (P33261 whole entry): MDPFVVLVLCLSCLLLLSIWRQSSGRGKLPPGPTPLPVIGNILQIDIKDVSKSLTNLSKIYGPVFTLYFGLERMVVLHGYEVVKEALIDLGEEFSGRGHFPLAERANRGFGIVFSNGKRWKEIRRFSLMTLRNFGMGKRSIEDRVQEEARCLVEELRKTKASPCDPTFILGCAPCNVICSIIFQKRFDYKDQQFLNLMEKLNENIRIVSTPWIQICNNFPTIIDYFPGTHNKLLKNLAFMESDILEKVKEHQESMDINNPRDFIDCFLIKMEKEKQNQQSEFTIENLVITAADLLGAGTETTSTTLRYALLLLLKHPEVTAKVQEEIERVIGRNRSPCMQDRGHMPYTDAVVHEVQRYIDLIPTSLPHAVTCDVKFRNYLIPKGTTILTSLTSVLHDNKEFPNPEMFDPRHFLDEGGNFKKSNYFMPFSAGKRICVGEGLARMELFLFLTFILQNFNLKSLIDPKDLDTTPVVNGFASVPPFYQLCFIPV
Experimental: Ki=IC50/1+S/Km (1) Where IC50 signifies the half-maximum inhibitory concentration; S, the concentration of P450 marker substrate; and K m , the Michaelis constant within the Michaelis-Menten equation, which is in turn used to characterize substrate-enzyme binding kinetics.
The Michaelis constant (K m ) of CYP2C9 incubated with diclofenac was obtained from reported data ([Lee et al., 2014]). Methods used to calculate the Ki of CYP2C19 and CYP2C9 were similar.

[4] = target: T1, OATP1B3 (Homo sapiens, UniProt Q9NPD5); assay: Transporter substrate/inhibitor assessment, OATP1B3; format: in vitro ADME
T1 sequence (Q9NPD5 1-702): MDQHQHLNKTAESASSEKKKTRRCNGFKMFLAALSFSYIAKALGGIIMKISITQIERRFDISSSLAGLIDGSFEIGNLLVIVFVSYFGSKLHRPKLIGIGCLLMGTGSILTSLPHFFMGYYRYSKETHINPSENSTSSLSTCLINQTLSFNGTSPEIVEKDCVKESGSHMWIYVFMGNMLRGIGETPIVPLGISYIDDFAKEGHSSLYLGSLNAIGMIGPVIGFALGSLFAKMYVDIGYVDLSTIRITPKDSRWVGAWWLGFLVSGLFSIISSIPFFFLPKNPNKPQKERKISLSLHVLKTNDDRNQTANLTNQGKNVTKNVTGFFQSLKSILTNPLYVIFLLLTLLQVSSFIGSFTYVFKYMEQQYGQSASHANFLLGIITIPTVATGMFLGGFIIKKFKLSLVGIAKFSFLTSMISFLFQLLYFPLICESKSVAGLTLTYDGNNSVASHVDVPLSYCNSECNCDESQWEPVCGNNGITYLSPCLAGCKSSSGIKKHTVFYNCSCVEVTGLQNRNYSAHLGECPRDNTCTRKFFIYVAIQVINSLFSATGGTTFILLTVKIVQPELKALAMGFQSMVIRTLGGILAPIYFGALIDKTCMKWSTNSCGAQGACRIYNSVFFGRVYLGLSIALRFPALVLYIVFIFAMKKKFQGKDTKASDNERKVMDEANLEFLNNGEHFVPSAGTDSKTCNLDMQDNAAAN

[5] = target: T2, OAT1 (Homo sapiens, UniProt Q4U2R8); assay: Transporter substrate/inhibitor assessment, OAT1; format: in vitro ADME
T2 sequence (Q4U2R8 1-563): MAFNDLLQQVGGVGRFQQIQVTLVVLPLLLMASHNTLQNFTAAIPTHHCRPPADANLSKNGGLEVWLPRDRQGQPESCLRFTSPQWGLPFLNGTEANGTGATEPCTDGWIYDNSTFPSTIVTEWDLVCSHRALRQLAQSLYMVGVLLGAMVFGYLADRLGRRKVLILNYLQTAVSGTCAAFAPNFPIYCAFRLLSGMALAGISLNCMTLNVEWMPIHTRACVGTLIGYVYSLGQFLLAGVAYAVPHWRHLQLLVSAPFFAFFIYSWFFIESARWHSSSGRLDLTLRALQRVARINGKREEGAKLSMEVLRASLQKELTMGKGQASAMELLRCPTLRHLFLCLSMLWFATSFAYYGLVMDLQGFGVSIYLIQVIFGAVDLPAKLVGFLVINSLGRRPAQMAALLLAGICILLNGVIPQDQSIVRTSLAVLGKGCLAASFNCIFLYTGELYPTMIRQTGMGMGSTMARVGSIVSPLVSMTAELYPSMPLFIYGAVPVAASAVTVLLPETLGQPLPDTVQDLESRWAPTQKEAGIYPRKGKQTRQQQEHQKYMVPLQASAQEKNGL

Cc1ccc(C(=O)Nc2ccc(CN3CCN(C)CC3)c(C(F)(F)F)c2)cc1C#Cc1cnc2[nH]ncc2c1 [olverembatinib, Olverembatinib]
fraction unbound ([1]; mean of three test concentrations, read-out: mean fu (fu,p, fraction unbound in plasma)): 0.0005 | fraction unbound at 80 ng/ml ([1]; test concentration 80 ng/ml, read-out: fu (N=3)): 0.0007 | fraction unbound at 400 ng/ml ([1]; test concentration 400 ng/ml, read-out: fu (N=3)): 0.0004 | fraction unbound at 4000 ng/ml ([1]; test concentration 4000 ng/ml, read-out: fu (N=3)): 0.0004 | mean conc (N=3) ([2]; blood H): 43.5 | mean conc (N=3) ([2]; blood L): 0.395 | mean conc (N=3) ([2]; blood M): 4.01 | mean conc (N=3) ([2]; plasma H): 45.9 | mean conc (N=3) ([2]; plasma L): 0.25 | mean conc (N=3) ([2]; plasma M): 2.95 | pKi [3]: 5.72 | CYP2C19 inhibition, strength ([3]; microsomes): weak | substrate or inhibitor of OATP1B3 [4]: neither a substrate nor inhibitor | substrate or inhibitor of OAT1 [5]: neither a substrate nor inhibitor
